Laboratory results as given in patent US7160915B2, “N-methyl-substituted benzamidazoles” (Warner-Lambert Company, LLC, priority 2003, dated 2007).

Test system: phosphorylation of MAP kinase (ERK) in murine colon 26 (C26) carcinoma cells
Assay: Cellular assay for measuring MEK inhibition: inhibition of ERK phosphorylation, C26CPA1
Type: cell-based
Settings: Mus musculus, 1 h, C26 cells treated one hour with test compound
Description: (§1) Cellular Assay for Measuring MEK Inhibition
(§2) MEK inhibitors were evaluated by determining their ability to inhibit phosphorylation of MAP kinase (ERK) in murine colon 26 (C26) carcinoma cells. Since ERK1 and ERK2 represent the only known substrates for MEK1 and MEK2, the measurement of inhibition of ERK phosphorylation in cells provides direct read out of cellular MEK inhibition by the compounds of the invention. Detection of phosphorylation of ERK was carried out either by Western blot or ELISA format. Briefly, the assays involve treatment of exponentially growing C26 cells with varying concentrations of the test compound (or vehicle control) for one hour at 35° C. For Western blot assay, cells were rinsed free of compound/vehicle and lysed in a solution containing 50 mM NaCl, 50 mM glycerol phosphate, 10 mM HEPES, pH […], 1% Triton X-100, 1 mM Na3VO4, 100 μM PMSF, 10 μM leupeptin and 10 μM pepstatin. Supernatants were then subjected to gel electrophoresis and hybridized to a primary antibody recognizing dually phosphorylated ERK1 and ERK2. To evaluate total MAPK levels, blots were subsequently ‘stripped’ and re-probed with a 1:1 mixture of polyclonal antibodies recognizing unphosphorylated ERK1 and ERK2. For pERK ELISA assay, pERK TiterZyme Enzyme immunometric Assay kits were acquired from Assay Designs, Inc (Ann Arbor, Mich.). Briefly, cells were harvested in lysis solution containing 50 mM β-glycerophosphate, 10 mM HEPES, pH5.4, 50 mM NaCl, 2mM EDTA and 1% SDS and protein lysates were diluted 1:15 with supplied Assay buffer prior to the execution of the assay. The subsequent steps were carried out essentially as recommended by the manufacturer.
(§3) The inhibition data generated by the above protocol is disclosed in Table I. If several concentrations of inhibitor were tested, IC50 values (the concentration which gives 50% inhiition) were determined graphically from the dose response curve for % inhibition. Otherwise, percent inhibitions at measured concentrations are reported.
(§4) Table I. Cellular Inhibition of ERK Phosphorylation by Compounds of the Invention

Row | SMILES | IC50 [µM]
1 | Cn1cnc2c(F)c(Nc3ccc(I)cc3F)c(-c3nnc(NCCO)o3)cc21 [Compound 6] | 0.569
2 | Cc1cc(I)ccc1Nc1c(C(=O)NOCC2CC2)cc2c(ncn2C)c1F [Compound 9] | 0.012
3 | COC(=O)c1cc2c(ncn2C)c(F)c1Nc1ccc(I)cc1C [Compound 11] | 1
4 | COC(=O)Cn1cnc2c(F)c(Nc3ccc(I)cc3C)c(C(=O)NOCC3CC3)cc21 [Compound 12] | 0.022
5 | Cc1cc(I)ccc1Nc1c(C(=O)NOCCO)cc2c(ncn2C)c1F [Compound 13] | 0.0034
6 | CCCn1cnc2c(F)c(Nc3ccc(I)cc3C)c(C(=O)NOCC3CC3)cc21 [Compound 14] | 0.028
7 | Cc1cc(I)ccc1Nc1c(C(=O)NOCC(O)CO)cc2c(ncn2C)c1F (stereo not shown) [Compound 15] | 0.086
8 | Cc1cc(I)ccc1Nc1c(C(=O)NOCC2CC2)cc2c(ncn2CCCO)c1F [Compound 16] | 0.11
9 | CNCCONC(=O)c1cc2c(ncn2C)c(F)c1Nc1ccc(I)cc1C [Compound 20] | 0.19
10 | Cc1cc(I)ccc1Nc1c(-c2nnc(N)o2)cc2c(ncn2C)c1F [Compound 21] | 0.268
11 | Cc1cc(I)ccc1Nc1c(C(N)=O)cc2c(ncn2C)c1F [Compound 22] | 0.041
12 | Cn1cnc2c(F)c(Nc3ccc(I)cc3F)c(C(N)=O)cc21 [Compound 23] | 0.002
13 | Cn1cnc2c(F)c(Nc3ccc(I)cc3F)c(C(=O)NCC(O)CO)cc21 (stereo not shown) [Compound 24] | 0.556
14 | Cn1cnc2c(F)c(Nc3ccc(I)cc3F)c(C(=O)NCCO)cc21 [Compound 25] | 0.122
15 | Cn1cnc2c(F)c(Nc3ccc(I)cc3F)c(C(=O)NCCCO)cc21 [Compound 26] | 0.15
16 | Cc1cc(I)ccc1Nc1c(CO)cc2c(ncn2C)c1F [Compound 28] | 0.566
17 | Cn1cnc2c(F)c(Nc3ccc(I)cc3F)c(C(=O)NO)cc21 [Compound 30] | 0.0004
18 | Cn1cnc2c(F)c(Nc3ccc(I)cc3F)c(C(=O)NCCCN)cc21 [Compound 31] | 1
19 | Cn1cnc2c(F)c(Nc3ccc(I)cc3F)c(C(=O)NOCCO)cc21 [Compound 32] | 0.0019
20 | Cn1cnc2c(F)c(Nc3ccc(I)cc3F)c(C(=O)NOC[C@H](O)CO)cc21 [Compound 34] | 0.022
21 | Cc1cc(I)ccc1Nc1c(C(=O)NOCC2CC2)cc2c(ncn2CC(O)CO)c1F (stereo not shown) [Compound 35] | 0.00885
22 | CCc1ccc(Nc2c(C(=O)OC)cc3c(ncn3C)c2F)c(F)c1 [Compound 38] | 0.23
23 | Cn1cnc2c(F)c(Nc3ccc(I)cc3F)c(CO)cc21 [Compound 40] | 0.08

Test system: phosphorylation of MAP kinase (ERK) in murine colon 26 (C26) carcinoma cells
Assay: Cellular assay for measuring MEK inhibition: inhibition of ERK phosphorylation, C26ELSA (pERK ELISA)
Type: cell-based
Settings: Mus musculus, 1 h, C26 cells treated one hour with test compound
Description: as §1, §2, §3, §4

Row | SMILES | IC50 [µM]
24 | Cn1cnc2c(F)c(Nc3ccc(I)cc3F)c(C(=O)NCCCO)cc21 [Compound 1] | 0.55
25 | Cn1cnc2c(F)c(Nc3ccc(I)cc3F)c(C(N)=O)cc21 [Compound 23] | 0.00842
26 | CCc1ccc(Nc2c(C(N)=O)cc3c(ncn3C)c2F)c(F)c1 [Compound 42] | 0.28

Test system: not given
Assay: not given
Settings: not given

Row | SMILES | melting point
27 | Cn1cnc2c(F)c(Nc3ccc(I)cc3F)c(C(N)=O)cc21 [Example 2] | 265 to 268 °C (dec.)
28 | Cc1cc(I)ccc1Nc1c(-c2nnc(N)o2)cc2c(ncn2C)c1F [Example 4, [6-(5-amino-[1,3,4]oxadiazol-2-yl)-4-fluoro-1-methyl-1H-benzoimidazol-5-yl]-(4-iodo-2-methyl-phenyl)-amine] | 258 to 260 °C
